Patent publication US20110281852A1 (priority 2010, published 2011)

Key:
C/EBPα = experiment: Real-time RT-PCR, C/EBPα mRNA in 3T3-L1; type: cell-based, mouse; settings: 8 days
From the text: Realtime RT-PCR: Real-time reverse transcriptase polymerase chain reaction (RT-PCR) analysis was used to measure mRNA expression of genes SREBP-1, PPARγ, C/EBPα, low density lipoprotein receptor (LDLR), Adiponectin, and fatty acid synthase (FAS) under the control of β-actin. Briefly, total RNA was isolated from 3T3-L1 cells following treatment for 8 days with Trizol reagent (Invitrogen, Carlsbad, Calif., USA) according to the manufacturer's instruction. RNA was quantified using absorption of light at 260 nm, and sample purity was checked by OD 260 nm/280 nm. 0.8 μg of total RNA from each sample was used for reverse transcription reaction using the TaqMan Reverse Transcription Reagents (Applied Biosystems, Foster City, Calif., USA) according to the manufacturers' instructions. PCR was done using the SYBR green Master Mix (Applied Biosystems, Foster City, Calif., USA) according to the manufacturers' instructions. The temperature cycling conditions of amplification were as follows: an initial step of denaturation at 95° C. for 10 min, 40 cycles of denaturation at 95° C. for 30 s, annealing at 55° C. for 30 s, and elongation at 72° C. for 30 s. Realtime RT-PCR was performed using Mx3000P Realtime Thermocyclers (Statagene, La Jolla, Calif., USA). The relative mRNA levels of these genes were calculated by 2-delta delta CT method and normalized with control groups.

[1] = Serum triglyceride assay in mice; type: in vivo, mouse
Procedure: Six mice per subgroup were obtained finally.
Serum glucose, triglyceride, cholesterol assay: Blood samples from each mouse were collected and serum was separated by centrifugation for the measurement of levels of glucose, triglyceride and total cholesterol. Serum glucose concentrations were analyzed using Glucose (HK) Assay Kit (Sigma-aldrich, Saint Louis, Mo., USA). Serum triglyceride concentrations were analyzed using Serum Triglyceride Determination Kit (Sigma-aldrich, Saint Louis, Mo., USA). Serum cholesterol concentrations were analyzed using Amplex® Red Cholesterol Assay Kit (Invitrogen, Carlsbad, Calif., USA). All experimental assays were done according to the manufacturer's instructions.

3T3-L1 cells = experiment: Oil-Red-O staining and quantification, berberine with amentoflavone in 3T3-L1 (Example 6); type: cell-based, mouse; settings: 8 days
Procedure: Oil-Red-O staining and quantification: Oil-Red-O Staining and its quantification were performed as previously reported. Briefly, medium was removed and cells were washed with PBS twice, fixed with 3.7% formalin at room temperature for 30 min, then rinsed with pure water, added 60% isopropanol and incubated for 5 minutes, then moved out isopropanol and stained cells with diluted Oil-Red-O solution (Oil-Red-O store solution (3 mg/ml in pure isopropanol): water=3:2) at room temperature for 10 min. Then the diluted Oil-Red-O solution was removed and cells were washed 3 times with pure water. After staining, the cells were washed twice with 70% ethanol to remove excess stain. Stained oil droplets in the cells were dissolved in isopropanol containing 4% Nonidet-P40 (Fisher Scientific, Pittsburgh, Pa., USA) shaking in 37° C. at speed 100 rpm for 1 hour, and OD values were measured at an absorbance of 490 nm and then normalized with control group.

[2] = test system: SERT promoter (5-HTTLPR alleles); experiment: DRL (dual luciferase reporter) assay, SERT promoter activity of 5-HTTLPR alleles in RN46A cells; type: cell-based; settings: 2 μM evodiamine
From the text: The PCR reaction to amplify the 5-HTTLPR alleles for sequencing and creation of reporter constructs contained primers different than those used for the genotyping experiment.
The primer sequences were described previously and are as follows: Forward primer 5′-[…]-3′ (SEQ ID NO:25) and Reverse primer 5′-[…]-3′ (SEQ ID NO:26) (Hu et al., Am J Hum Genet (2006) 78(5):815-826). The PCR products of the six 5-HTTLPR alleles (S, LG, LA, XS, XL-17, and XL-18) were subcloned into the TOPO TA cloning vector pCR2.1-TOPO (Invitrogen) and transformed to One Shot TOP10 competent E. coli cells according to the manufacturer's instructions. In the case of individuals heterozygous for 5-HTTLPR, resulting transformants were screened for the presence of the correct insert using the restriction enzyme EcoR I.
The resulting constructs, created and sequenced, in the pCR2.1-TOPO vector (S, LG, LA, XS, XL-17, and XL-18 alleles) were subcloned to the luciferase reporter vector pGL4.10 [luc2] (Promega) using standard molecular techniques. Additionally, each allele was cloned into pGL4.10 [luc2] in the backwards orientation to ensure that transcriptional effects were the result of consensus promoter sequences. […] The co-transfection with the 5-HTTLPR pGL4.10 constructs (firefly luciferase) and the pRL-SV40 vector (renilla luciferase) to the RN46A raphe-derived cell line using Lipofectamine 2000 (Invitrogen) was described previously. Expression was measured using the Dual-Luciferase Reporter Assay System (Promega) 24 h after transfection with passive lysis buffer.
Relative light units (RLU) for both the firefly and renilla luciferase was measured using a 20/20^n Luminometer (Turner Biosystems, Sunnyvale Calif. 94085) and the ratio between the firefly RLU to renilla RLU in each sample was determined. The values were all normalized to the (S) allele.

## COc1ccc2cc3[n+](cc2c1OC)CCc1cc2c(cc1-3)OCO2.[Cl-] [berberine, Berberine (Chloride Form)]
C/EBPα; 8 μM berberine + 15 μM clozapine
  decrease of C/EBPα mRNA expression vs clozapine treated group: 94.7%
C/EBPα; 8 μM berberine + 50 μM risperidone
  decrease of C/EBPα mRNA expression vs risperidone treated group: 96.4%
[1]; FD mice, 0.75 mg/kg/day
  reduction of serum triglyceride level vs control treated group: 31.2%
[1]; FD mice, 0.75 mg/kg/day, 36 days (control 135.6±17.0)
  serum triglyceride level: 93.2 ± 20.8 mg/dL
[1]; FD mice, 1.5 mg/kg/day
  reduction of serum triglyceride level vs control treated group: 25.2%
[1]; FD mice, 1.5 mg/kg/day, 36 days
  serum triglyceride level: 101.4 ± 9.7 mg/dL
[1]; FD mice, 3 mg/kg/day
  reduction of serum triglyceride level vs control treated group: 37.8%
[1]; FD mice, 3 mg/kg/day, 36 days
  serum triglyceride level: 84.3 ± 18 mg/dL
[1]; ND mice, 3 mg/kg/day (control 70.7±14)
  serum triglyceride level: 70.7 ± 12.8 mg/dL
3T3-L1 cells; 2 μM berberine, differentiation medium with 15 μM clozapine
  reduction in lipid content vs no berberine treated group: 26%
3T3-L1 cells; 2 μM berberine, differentiation medium without clozapine
  reduction in lipid content vs no berberine treated group: 9.9%
3T3-L1 cells; 4 μM berberine, differentiation medium with 15 μM clozapine
  reduction in lipid content vs no berberine treated group: 70.7%
3T3-L1 cells; 4 μM berberine, differentiation medium without clozapine
  reduction in lipid content vs no berberine treated group: 59.6%
3T3-L1 cells; 8 μM berberine, differentiation medium with 15 μM clozapine
  reduction in lipid content vs no berberine treated group: 88.1%
3T3-L1 cells; 8 μM berberine, differentiation medium without clozapine
  reduction in lipid content vs no berberine treated group: 81.7%
3T3-L1 cells; 16 μM berberine, differentiation medium without clozapine
  reduction in lipid content vs no berberine treated group: 81%

## evodiamine
[2]; LA allele
  increase of SERT promoter activity vs vehicle: 171.5%
[2]; LG allele
  increase of SERT promoter activity vs vehicle: 288.5%
[2]; S allele
  increase of SERT promoter activity vs vehicle: 206.9%
[2]; XL17 allele
  increase of SERT promoter activity vs vehicle: 165.6%
[2]; XL18 allele
  increase of SERT promoter activity vs vehicle: 96.3%
[2]; XS allele
  increase of SERT promoter activity vs vehicle: 74.3%
